The subject of experiment [1] is Toxoplasma gondii. Nature of the experiment: Inhibitory activity against cell growth of Toxoplasma gondii measured by the incorporation of [3H]uracil at <=10 uM.
The target of another experiment is T1, Dihydrofolate reductase (Rattus norvegicus, UniProt Q920D2).
T1 sequence (Q920D2 whole entry): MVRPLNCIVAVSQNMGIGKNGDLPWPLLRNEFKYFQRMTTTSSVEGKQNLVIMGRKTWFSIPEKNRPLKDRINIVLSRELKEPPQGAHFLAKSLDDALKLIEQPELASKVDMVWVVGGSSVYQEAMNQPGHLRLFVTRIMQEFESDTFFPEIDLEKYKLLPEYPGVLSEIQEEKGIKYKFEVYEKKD

Experiment [2] is described as follows: Ratio of inhibitory activity against dihydrofolate reductase of rat liver to pneumocystis carinii.
A short description of experiment [3]: Ratio of inhibitory activity against dihydrofolate reductase of rat liver to Toxoplasma gondii.
In another experiment the test system is MDA-N. Nature of the experiment: […] cytotoxic evaluation against breast cancer MDA-N cell line. Format: functional, Homo sapiens.
Another experiment concerns K562. Nature of the experiment: […] cytotoxic evaluation against human leukemic K-562 cell line. Format: functional.
The next experiment has as its system MDA-MB-435. Nature of the experiment: […] cytotoxic evaluation against breast cancer MDA-MB-435 cell line. Format: functional, Homo sapiens.
The next experiment deals with SF-295. Nature of the experiment: […] cytotoxic evaluation against CNS cancer SF-295 cell line. Format: functional, Homo sapiens.
Another experiment has as its system SK-MEL-5. Nature of the experiment: […] cytotoxic evaluation against melanoma SK-MEL-5 cell line. The class given is functional, Homo sapiens.
For the next experiment, the system named is EKVX. Nature of the experiment: […] cytotoxic evaluation against human lung cancer EKVX cell line. Format: functional.
A further experiment has as its system HCC 2998. Nature of the experiment: […] cytotoxic evaluation against colon cancer HCC2998 cell line. Format: functional, Homo sapiens.
In a further experiment the test system is LOX IMVI. Nature of the experiment: […] cytotoxic evaluation against melanoma LOX IMVI cell line. Format: functional, Homo sapiens.
In another experiment the test system is COLO 205. Nature of the experiment: […] cytotoxic evaluation against colon cancer COLO 205 cell line. The class given is functional, Homo sapiens.
In another experiment the test system is HCT-116. Nature of the experiment: In vitro cytotoxic evaluation against colon cancer HCT116 cell line.
Another experiment deals with MOLT-4. Nature of the experiment: […] cytotoxic evaluation against human leukemic Molt-4 cell line. The class given is functional.
The subject of experiment [4] is Toxoplasma gondii. Nature of the experiment: Inhibitory activity against cell growth of Toxoplasma gondii measured by the incorporation of [3H]uracil at 7.8 uM.
For experiment [5], the system named is Pneumocystis carinii. Nature of the experiment: Inhibitory activity against cell growth of pneumocystis carinii measured by direct counting of organisms in the culture supernatant fluid at 50.7 uM.
Experiment [6] has as its system Toxoplasma gondii. Nature of the experiment: Inhibitory activity against cell growth of Toxoplasma gondii measured by the incorporation of [3H]uracil at 10 uM.
Experiment [7] concerns Toxoplasma gondii. Nature of the experiment: Inhibitory activity against cell growth of Toxoplasma gondii measured by the incorporation of [3H]uracil at […].
In experiment [8] the test system is Pneumocystis carinii. Nature of the experiment: Inhibitory activity against cell growth of pneumocystis carinii measured by direct counting of organisms in the culture supernatant fluid at 10 uM.

The term Inhibition denotes the percentage by which the read-out fell short of the control. Low readings indicate little suppression, high ones strong suppression. One may read the IC50 as the midpoint of a concentration-inhibition curve. A high value points to weaker potency. For orientation: GI50 means the concentration giving 50% growth inhibition. High values mean less potent growth inhibition, low ones more potent growth inhibition. Usually inhibition stands for how much of the control response was suppressed. Low readings indicate a weak effect, high ones a strong effect.

The structures appear in SMILES notation.

Description for Dihydrofolate reductase: Inhibition of dihydrofolate reductase from rat liver.

`Nc1nc(N)c2cc(CNc3ccccc3)cnc2n1` gave an Inhibition in the experiment on Toxoplasma gondii [1] of 0%.
Take `CN(Cc1cnc2nc(N)nc(N)c2c1)c1ccccc1`: the IC50 against Dihydrofolate reductase worked out at 395000 nM.
Regarding `COc1cccc(NCc2cnc3nc(N)nc(N)c3c2)c1`, the IC50 against Dihydrofolate reductase was 790 nM.
As to `COc1cc(NCc2ccc3nc(N)nc(N)c3c2C)cc(OC)c1OC`, the values for the Ratio in experiment [2] and in experiment [3] were 0.07 and 0.3, respectively.
For `Nc1nc(N)c2cc(CNc3ccc(Cl)c(Cl)c3)cnc2n1`, the GI50 with MDA-N is 950 nM; in the experiment with K562 it was 330 nM; with MDA-MB-435, 1300 nM; in the experiment with SF-295 it was 3800 nM; in the experiment on SK-MEL-5 it was 1100 nM; in the experiment with EKVX, 2400 nM. Moreover, the GI50 turned out to be 2700 nM in the experiment on HCC 2998; 820 nM in the experiment with LOX IMVI; 1700 nM in the experiment on COLO 205; 620 nM in the experiment with HCT-116; 1100 nM in the experiment with MOLT-4. The molecule also gave an IC50 at Dihydrofolate reductase of 480 nM.
As for `CN(Cc1cnc2nc(N)nc(N)c2c1)c1cc(Cl)c(Cl)c(Cl)c1`, half-maximal inhibition against Dihydrofolate reductase (IC50) required 270 nM.
Turning to `CN(Cc1cnc2nc(N)nc(N)c2c1)c1ccc(Cl)c(Cl)c1`, the IC50 against Dihydrofolate reductase came out at 180 nM.
In the experiment with Toxoplasma gondii [4], `Nc1nc(N)c2cc(CNc3cccc4ccccc34)cnc2n1` had an inhibition at 7.8 µM of 50%. The same molecule showed an inhibition at 50.7 µM in the experiment on Pneumocystis carinii [5] of 50%. Moreover, the IC50 against Dihydrofolate reductase is 600 nM.
For the molecule `Nc1nc(N)c2cc(CNc3ccc4ccccc4c3)cnc2n1`, the GI50 in the experiment with MDA-N was 4400 nM; in the experiment on K562, 500 nM; in the experiment with MDA-MB-435 it was 10000 nM; with SF-295, 8200 nM; in the experiment on SK-MEL-5, 3200 nM; in the experiment on EKVX, 9000 nM. The GI50 with HCC 2998 came to 1100 nM; in the experiment with LOX IMVI, 1600 nM; in the experiment on COLO 205, 2400 nM; in the experiment with HCT-116, 1900 nM; in the experiment on MOLT-4, 2000 nM. On Dihydrofolate reductase, the IC50 worked out at 4900 nM.
As for `COc1ccc(OC)c(NCc2cnc3nc(N)nc(N)c3c2)c1`, the inhibition at 10 µM with Toxoplasma gondii [6] was less than 50%. On Dihydrofolate reductase, this molecule yielded an IC50 of 5000 nM.
In the case of `Nc1nc(N)c2cc(CNc3cc(Cl)c(Cl)c(Cl)c3)cnc2n1`, the GI50 in the experiment with MDA-N is 500 nM; in the experiment on K562 it was 350 nM; in the experiment on MDA-MB-435 it was 570 nM; in the experiment on SF-295, 740 nM; in the experiment on SK-MEL-5, 350 nM; in the experiment with EKVX it was 850 nM. Moreover, the GI50 worked out at 780 nM in the experiment on HCC 2998; 31 nM in the experiment on LOX IMVI; 310 nM in the experiment with COLO 205; 740 nM with HCT-116; 710 nM with MOLT-4. This molecule had a concentration for half-maximal inhibition (IC50) against Dihydrofolate reductase of 4600 nM.
`COc1ccc(NCc2cnc3nc(N)nc(N)c3c2)cc1OC` returned an IC50 against Dihydrofolate reductase of 560 nM.
With `COc1ccc(OC)c(CN(C)c2cnc3nc(N)nc(N)c3c2)c1`, the Ratio amounted to 0.7 in experiment [2] and 9 in experiment [3].
Take `COc1cc(NCc2cnc3nc(N)nc(N)c3c2C)cc(OC)c1OC`: the Ratio in [2] came to 0.02; in [3], 0.3.
With `Nc1nc(N)c2cc(CNc3cc(Cl)ccc3Cl)cnc2n1`, the GI50 is 3000 nM with MDA-N; 1600 nM in the experiment with K562; 2400 nM with MDA-MB-435; 4000 nM in the experiment on SF-295; 2200 nM in the experiment with SK-MEL-5; 6600 nM in the experiment on EKVX. The GI50 in the experiment on HCC 2998 came to 3000 nM; in the experiment on LOX IMVI, 710 nM; in the experiment on COLO 205 it was 2300 nM; in the experiment on HCT-116 it was 2100 nM; with MOLT-4 it was 2000 nM. The same molecule gave an inhibition at […] in the experiment with Toxoplasma gondii [7] of 50%. The molecule further displayed an inhibition at 10 µM with Pneumocystis carinii [8] of 88%. Also, it took 6900 nM to reach half-maximal inhibition at Dihydrofolate reductase (IC50).

(Values after ChEMBL document CHEMBL1145897, “Synthesis and biological evaluation of 2,4-diamino-6-(arylaminomethyl)pyrido[2,3-d]pyrimidines as inhibitors of Pneumocystis carinii and Toxoplasma gondii dihydrofolate reductase and as antiopportunistic infection and antitumor agents” (J Med Chem, 2003).)
